According to PMC10041525, “New Dual Inhibitors of Bacterial Topoisomerases with Broad-Spectrum Antibacterial Activity and In Vivo Efficacy against Vancomycin-Intermediate Staphylococcus aureus” (Journal of Medicinal Chemistry, 2023):
Values after ≈ are worked out from the molar mass of the structure shown. Where two headings read alike, the source gives them in different places.

Test system: 100 A. baumannii strains (50 MDR, 50 non-MDR)
Assay: MIC broth microdilution at IHMA Europe, panel of 100 strains
Type: cell-based
Details: for MIC / MIC50 / MIC90: Acinetobacter baumannii; for MIC50: read-out: MIC 50; for MIC90: read-out: MIC 90

CN(C)c1cc(NC(=O)CNC(C)(C)C)c(O)c2c1C[C@H]1C[C@H]3[C@H](N(C)C)C(O)=C(C(N)=O)C(=O)[C@@]3(O)C(O)=C1C2=O [Tigecycline, tigecycline]
MIC (A. baumannii IHMA 2154584, Israel 2020, MDR, read-out: MIC): 2 µg/mL (≈ 3.41 µM)
MIC (A. baumannii IHMA 2155340, Kenya 2020, MDR, read-out: MIC): 4 µg/mL (≈ 6.83 µM)
MIC (A. baumannii IHMA 2156634, Turkey 2020, MDR, read-out: MIC): 4 µg/mL (≈ 6.83 µM)
MIC (A. baumannii IHMA 2156709, Turkey 2020, MDR, read-out: MIC): 4 µg/mL (≈ 6.83 µM)
MIC (A. baumannii IHMA 2157614, Australia 2020, Non-MDR, read-out: MIC): 0.25 µg/mL (≈ 0.427 µM)
MIC (A. baumannii IHMA 2177232, Lithuania 2020, MDR, read-out: MIC): 8 µg/mL (≈ 13.7 µM)
MIC (A. baumannii IHMA 2177489, Lithuania 2020, MDR, read-out: MIC): 4 µg/mL (≈ 6.83 µM)
MIC (A. baumannii IHMA 2178574, Ukraine 2020, Non-MDR, read-out: MIC): 0.25 µg/mL (≈ 0.427 µM)
MIC (A. baumannii IHMA 2180134, Malaysia 2020, Non-MDR, read-out: MIC): 0.25 µg/mL (≈ 0.427 µM)
MIC (A. baumannii IHMA 2180142, Malaysia 2020, MDR, read-out: MIC): 2 µg/mL (≈ 3.41 µM)
MIC (A. baumannii IHMA 2181370, Morocco 2020, MDR, read-out: MIC): 1 µg/mL (≈ 1.71 µM)
MIC (A. baumannii IHMA 2183729, Argentina 2020, MDR, read-out: MIC): 1 µg/mL (≈ 1.71 µM)
MIC (A. baumannii IHMA 2183849, Argentina 2020, Non-MDR, read-out: MIC): 0.25 µg/mL (≈ 0.427 µM)
MIC (A. baumannii IHMA 2184382, Japan 2020, Non-MDR, read-out: MIC): 0.12 µg/mL (≈ 0.205 µM)
MIC (A. baumannii IHMA 2193375, Venezuela 2020, MDR, read-out: MIC): 1 µg/mL (≈ 1.71 µM)
MIC (A. baumannii IHMA 2193485, Venezuela 2020, Non-MDR, read-out: MIC): 0.12 µg/mL (≈ 0.205 µM)
MIC (A. baumannii IHMA 2193607, Venezuela 2020, MDR, read-out: MIC): 0.5 µg/mL (≈ 0.854 µM)
MIC (A. baumannii IHMA 2195460, Italy 2020, MDR, read-out: MIC): 1 µg/mL (≈ 1.71 µM)
MIC (A. baumannii IHMA 2196914, South Africa 2020, MDR, read-out: MIC): 4 µg/mL (≈ 6.83 µM)
MIC (A. baumannii IHMA 2196959, South Africa 2020, MDR, read-out: MIC): 2 µg/mL (≈ 3.41 µM)
MIC (A. baumannii IHMA 2203763, Spain 2020, MDR, read-out: MIC): 2 µg/mL (≈ 3.41 µM)
MIC (A. baumannii IHMA 2205144, Korea, South 2020, MDR, read-out: MIC): 2 µg/mL (≈ 3.41 µM)
MIC (A. baumannii IHMA 2206459, Taiwan 2020, MDR, read-out: MIC): 2 µg/mL (≈ 3.41 µM)
MIC (A. baumannii IHMA 2206507, Taiwan 2020, Non-MDR, read-out: MIC): 0.12 µg/mL (≈ 0.205 µM)
MIC (A. baumannii IHMA 2212575, Hungary 2020, Non-MDR, read-out: MIC): 0.5 µg/mL (≈ 0.854 µM)
MIC (A. baumannii IHMA 2215307, Hong Kong 2020, Non-MDR, read-out: MIC): 0.25 µg/mL (≈ 0.427 µM)
MIC (A. baumannii IHMA 2216586, Taiwan 2020, MDR, read-out: MIC): 2 µg/mL (≈ 3.41 µM)
MIC (A. baumannii IHMA 2223200, Colombia 2020, Non-MDR, read-out: MIC): 0.25 µg/mL (≈ 0.427 µM)
MIC (A. baumannii IHMA 2224017, Panama 2020, MDR, read-out: MIC): 2 µg/mL (≈ 3.41 µM)
MIC (A. baumannii IHMA 2224303, Panama 2020, Non-MDR, read-out: MIC): 0.5 µg/mL (≈ 0.854 µM)
MIC (A. baumannii IHMA 2231797, Greece 2020, MDR, read-out: MIC): 4 µg/mL (≈ 6.83 µM)
MIC (A. baumannii IHMA 2233099, Guatemala 2020, MDR, read-out: MIC): 2 µg/mL (≈ 3.41 µM)
MIC (A. baumannii IHMA 2233430, Kazakhstan 2020, MDR, read-out: MIC): 4 µg/mL (≈ 6.83 µM)
MIC (A. baumannii IHMA 2233548, Kazakhstan 2020, Non-MDR, read-out: MIC): 0.12 µg/mL (≈ 0.205 µM)
MIC (A. baumannii IHMA 2238964, Thailand 2020, MDR, read-out: MIC): 1 µg/mL (≈ 1.71 µM)
MIC (A. baumannii IHMA 2239052, Thailand 2020, Non-MDR, read-out: MIC): 0.12 µg/mL (≈ 0.205 µM)
MIC (A. baumannii IHMA 2261047, Belgium 2020, MDR, read-out: MIC): 1 µg/mL (≈ 1.71 µM)
MIC (A. baumannii IHMA 2261633, Canada 2020, Non-MDR, read-out: MIC): 0.25 µg/mL (≈ 0.427 µM)
MIC (A. baumannii IHMA 2274234, South Africa 2020, MDR, read-out: MIC): 2 µg/mL (≈ 3.41 µM)
MIC (A. baumannii IHMA 2274364, South Africa 2020, MDR, read-out: MIC): 4 µg/mL (≈ 6.83 µM)
MIC (A. baumannii IHMA 2275237, Chile 2020, Non-MDR, read-out: MIC): 0.12 µg/mL (≈ 0.205 µM)
MIC (A. baumannii IHMA 2275751, Jordan 2020, MDR, read-out: MIC): 2 µg/mL (≈ 3.41 µM)
MIC (A. baumannii IHMA 2316205, United States 2020, MDR, read-out: MIC): 4 µg/mL (≈ 6.83 µM)
MIC (MDR n = 50, read-out: MAX (maximum MIC; all strains inhibited)): 8 µg/mL (≈ 13.7 µM)
MIC50 (MDR n = 50): 2 µg/mL (≈ 3.41 µM)
MIC90 (MDR n = 50): 4 µg/mL (≈ 6.83 µM)
MIC (MDR n = 50, read-out: MIN (minimum MIC)): 0.5 µg/mL (≈ 0.854 µM)
MIC (all isolates n = 100, read-out: MAX (maximum MIC; all strains inhibited)): 8 µg/mL (≈ 13.7 µM)
MIC50 (all isolates n = 100): 0.5 µg/mL (≈ 0.854 µM)
MIC90 (all isolates n = 100): 4 µg/mL (≈ 6.83 µM)
MIC (all isolates n = 100, read-out: MIN (minimum MIC)): 0.06 µg/mL (≈ 0.102 µM)
MIC (non-MDR n = 50, read-out: MAX (maximum MIC)): 4 µg/mL (≈ 6.83 µM)
MIC50 (non-MDR n = 50): 0.25 µg/mL (≈ 0.427 µM)
MIC90 (non-MDR n = 50): 0.5 µg/mL (≈ 0.854 µM)
MIC (non-MDR n = 50, read-out: MIN (minimum MIC)): 0.06 µg/mL (≈ 0.102 µM)
MAX (maximum MIC; all strains inhibited) (MDR n = 50): 8 µg/mL
MAX (maximum MIC; all strains inhibited) (all isolates n = 100): 8 µg/mL
